Experimental data as given in US9856242B2, “5-fluoro-N-(pyridin-2-yl)pyridin-2-amine derivatives containing a sulfone group” (Bayer Pharma Aktiengesellschaft, priority 2014, dated 2018).

Columns and labels:
[1] = tested on: Caco-2 cells; test: Proliferation assay (Method 3), Caco-2; assay type: cell-based; settings: Caco-2, 96 h; human colorectal carcinoma, 4 days, crystal violet; read-out: Inhibition of Caco-2 cell proliferation IC50
Description: Cultivated tumour cells (HeLa, human cervical tumour cells, ATCC CCL-2; NCI-H460, human non-small cell lung carcinoma cells, ATCC HTB-177; A2780, human ovarian carcinoma cells, ECACC #93112519; DU 145, hormone-independent human prostate carcinoma cells, ATCC HTB-81; HeLa-MaTu-ADR, multidrug-resistant human cervical carcinoma cells, EPO-GmbH Berlin; Caco-2, human colorectal carcinoma cells, ATCC HTB-37; B16F10, mouse melanoma cells, ATCC CRL-6475) were plated at a density of 5,000 cells/well (DU145, HeLa-MaTu-ADR), 3,000 cells/well (NCI-H460, HeLa), 2,500 cells/well (A2780), 1,500 cells/well (Caco-2), or 1,000 cells/well (B16F10) in a 96-well multititer plate in 200 μL of their respective growth medium supplemented 10% fetal calf serum. After 24 hours, the cells of one plate (zero-point plate) were stained with crystal violet (see below), while the medium of the other plates was replaced by fresh culture medium (200 μl), to which the test substances were added in various concentrations (0 μM, as well as in the range of 0.001-10 μM; the final concentration of the solvent dimethyl sulfoxide was 0.5%). The cells were incubated for 4 days in the presence of test substances. Cell proliferation was determined by staining the cells with crystal violet: the cells were fixed by adding 20 μl/measuring point of an 11% glutaric aldehyde solution for 15 minutes at room temperature. After three washing cycles of the fixed cells with water, the plates were dried at room temperature. The cells were stained by adding 100 μl/measuring point of a 0.1% crystal violet solution (pH 3.0). After three washing cycles of the stained cells with water, the plates were dried at room temperature. The dye was dissolved by adding 100 μl/measuring point of a 10% acetic acid solution. The extinction was determined by photometry at a wavelength of 595 nm. The change of cell number, in percent, was calculated by normalization of the measured values to the extinction values of the zero-point plate (=0%) and the extinction of the untreated (0 μm) cells (=100%). The IC50 values (inhibitory concentration at 50% of maximal effect) were determined by means of a 4 parameter fit.

[2] = biological target: T1, CDK2/CycE (Homo sapiens, UniProt P24941); test: CDK2/CycE kinase assay (Method 2a, TR-FRET, 10 μM ATP); assay type: biochemical
T1 construct: GST; purchased ProQinase GmbH (Freiburg, Germany); host or cells: insect cells (Sf9)
Text: 2a. CDK2/CycE Kinase Assay:
CDK2/CycE-inhibitory activity of compounds of the present invention was quantified employing the CDK2/CycE TR-FRET assay as described in the following paragraphs:
Recombinant fusion proteins of GST and human CDK2 and of GST and human CycE, expressed in insect cells (Sf9) and purified by Glutathion-Sepharose affinity chromatography, were purchased from ProQinase GmbH (Freiburg, Germany). As substrate for the kinase reaction biotinylated peptide biotin-Ttds-YISPLKSPYKISEG (C-terminus in amid form) was used which can be purchased e.g. form the company JERINI Peptide Technologies (Berlin, Germany).
For the assay 50 n1 of a 100 fold concentrated solution of the test compound in DMSO was pipetted into a black low volume 384 well microtiter plate (Greiner Bio-One, Frickenhausen, Germany), 2 μl of a solution of CDK2/CycE in aqueous assay buffer [50 mM Tris/HCl pH 8.0, 10 mM MgCl2, 1.0 mM dithiothreitol, 0.1 mM sodium ortho-vanadate, 0.01% (v/v) Nonidet-P40 (Sigma)] were added and the mixture was incubated for 15 min at 22° C. to allow pre-binding of the test compounds to the enzyme before the start of the kinase reaction. Then the kinase reaction was started by the addition of 3 μl of a solution of adenosine-tri-phosphate (ATP, 16.7 μM=>final conc. in the 5 μl assay volume is 10 μM) and substrate (1.25 μM=>final conc. in the 5 μl assay volume is 0.75 μM) in assay buffer and the resulting mixture was incubated for a reaction time of 25 min at 22° C. The concentration of CDK2/CycE was adjusted depending of the activity of the enzyme lot and was chosen appropriate to have the assay in the linear range, typical concentrations were in the range of 130 ng/mL. The reaction was stopped by the addition of 5 μl of a solution of TR-FRET detection reagents (0.2 μM streptavidine-XL665 [Cisbio Bioassays, Codolet, France] and 1 nM anti-RB(pSer807/pSer811)-antibody from BD Pharmingen [#558389] and 1.2 nM LANCE EU-W1024 labeled anti-mouse IgG antibody [Perkin-Elmer, product no. AD0077]) in an aqueous EDTA-solution (100 mM EDTA, 0.2% (w/v) bovine serum albumin in 100 mM HEPES/NaOH pH 7.0).
The resulting mixture was incubated 1 h at 22° C. to allow the formation of complex between the phosphorylated biotinylated peptide and the detection reagents. Subsequently the amount of phosphorylated substrate was evaluated by measurement of the resonance energy transfer from the Eu-chelate to the streptavidine-XL. Therefore, the fluorescence emissions at 620 nm and 665 nm after excitation at 350 nm was measured in a TR-FRET reader, e.g. a Rubystar (BMG Labtechnologies, Offenburg, Germany) or a Viewlux (Perkin-Elmer). The ratio of the emissions at 665 nm and at […] was taken as the measure for the amount of phosphorylated substrate. The data were normalised (enzyme reaction without inhibitor=0% inhibition, all other assay components but no enzyme=100% inhibition).

Row | Compound | IC50 [1] [µM] | IC50 [2] [µM]
1 | CS(=O)(=O)Cc1ccnc(Nc2cc(-c3cccc4ccoc34)c(F)cn2)c1 [Example 5, 4-(1-Benzofuran-7-yl)-5-fluoro-N-{4-[(methylsulfonyl)methyl]pyridin-2-yl}pyridin-2-amine] | 0.061 | 0.069
2 | Cc1cc(CS(C)(=O)=O)cc(Nc2cc(-c3ccc(F)c4ccoc34)c(F)cn2)n1 [Example 3, 5-Fluoro-4-(4-fluoro-1-benzofuran-7-yl)-N-{6-methyl-4-[(methylsulfonyl)methyl]pyridin-2-yl}pyridin-2-amine] | 0.012 | 0.046
3 | CS(=O)(=O)Cc1ccnc(Nc2cc(-c3ccc(F)c4ccoc34)c(F)cn2)c1 [Example 1, 5-Fluoro-4-(4-fluoro-1-benzofuran-7-yl)-N-{4-[(methylsulfonyl)methyl]pyridin-2-yl}pyridin-2-amine] | 0.04 | 0.087
4 | CS(=O)(=O)Cc1cc(F)nc(Nc2cc(-c3ccc(F)c4ccoc34)c(F)cn2)c1 [Example 2, 5-Fluoro-4-(4-fluoro-1-benzofuran-7-yl)-N-{6-fluoro-4-[(methylsulfonyl)methyl]pyridin-2-yl}pyridin-2-amine] | 0.037 | 0.071
5 | CS(=O)(=O)Cc1cc(Nc2cc(-c3ccc(F)c4ccoc34)c(F)cn2)nc(C(F)(F)F)c1 [Example 4, 5-Fluoro-4-(4-fluoro-1-benzofuran-7-yl)-N-{4-[(methylsulfonyl)methyl]-6-(trifluoromethyl)pyridin-2-yl}pyridin-2-amine] | 0.014 | 0.033
